Measurements published in patent US8518923B2, “Treatment or prevention of hypertensive disorders of pregnancy or fetal growth retardation” (Pantarhei Bioscience B.V., priority 2007, dated 2013).

Columns and labels:
subcutaneous arteries = test: Ex-vivo relaxation response in subcutaneous arteries on pressure myograph; design: species or system human; conditions: arteries from normal pregnant women, concentration response (FIG. 2)
Text: (§1) To evaluate acute dilatory responses to estetrol in human vasculature ex-vivo, the following study has been conducted. Myometrial arteries and subcutaneous arteries (diameter: 220 μm; length: 2-3 mm) were dissected from normal pregnant women undergoing planned caesarian section. Myometrial arteries are present in the uterus and are branches from the arteria uterina. Cigarette smokers and women with hypertension, diabetes mellitus, clinical manifestations of arteriosclerosis (CHD, peripheral artery disease, cerebrovascular disease), venous thromboembolic disease, liver disorders, unexplained vaginal bleeding, and personal or family history of breast cancer were excluded. None had received HRT, other steroid hormones, or any medication known to affect lipoprotein metabolism or blood pressure. The dissected arteries were mounted on a pressure myograph (LSI, USA). The organ bath was perfused (7 ml/min) with PSS (mM: NaCl 119, KCl 4.7, CaCl2 2.5, MgSO4 1.17, NaHCO3 25, KH2PO4 1.18, EDTA 0.026 and glucose 5.5; pH 7.4, 37° C., gassed with 5% CO2 in O2). […] FIG. 2 depicts the response curve of estetrol and PPT in the subcutaneous arteries. Again, the number of subjects is mentioned in parenthesis.

Myometrial arteries = test: Ex-vivo relaxation response in myometrial arteries on pressure myograph; design: species or system human; conditions: for relaxation in myometrial arteries: arteries from normal pregnant women, pressure myograph, concentration response (FIG. 1)
Text: as §1, with “FIG. 1” for “FIG. 2”, “the myometrial” for “the subcutaneous”, “arteries. The” for “arteries. Again, the”

Row | Compound | relaxation in subcutaneous arteries (subcutaneous arteries) | relaxation in myometrial arteries (Myometrial arteries) | selective effect: relaxation in myometrial arteries compared to subcutaneous arteries (Myometrial arteries; comparison of FIGS. 1 and 2)
1 | C[C@]12CC[C@@H]3c4ccc(O)cc4CC[C@H]3[C@@H]1[C@@H](O)[C@@H](O)[C@@H]2O [estetrol, 1,3,5 (10)-estratrien-3,15α,16α,17β-tetrol] | capable of inducing relaxation | capable of inducing relaxation | more pronounced in the myometrial arteries compared to the subcutaneous arteries
2 | CCCc1c(-c2ccc(O)cc2)nn(-c2ccc(O)cc2)c1-c1ccc(O)cc1 [PPT, [1H]-pyrazole-1,3,5-tri-trisphenol, reference compound] | capable of inducing relaxation | capable of inducing relaxation | –
